Measurements taken from patent US8501238B2, “Anti-infective agents and uses thereof” (priority 2007, dated 2013).
Where two headings read alike, the source gives them in different places.

Assays:
[1] = target: T1, HCV polymerase 1A (Δ21 NS5B) (Hepatitis C virus genotype 1a, UniProt P27958); assay: HCV Polymerase Inhibition Assay (1a); type: biochemical
T1 construct: 20 to 50nM Δ21 NS5B
Protocol: The reaction was initiated by the addition of 20μM CTP, 20μM ATP, 1μM ^3H-UTP (10mCi/umol), 5nM template RNA and 0.1 U/μl RNase inhibitor (RNasin, Promega), and allowed to proceed for 2 to 4h at room temperature. Reaction volume was 50μl. The reaction was terminated by the addition of 1 volume of 4mM spermine in 10mM Tris-Cl pH 8.0, 1mM EDTA. After incubation for at least 15 min at room temperature, the precipitated RNA was captured by filtering through a GF/B filter (Millipore) in a 96 well format. The filter plate was washed three times with 200μl each of 2mM spermine, 10mM Tris-Cl pH 8.0, lmM EDTA, and 2 times with ethanol. After air-drying, 30μl of Microscint 20 scintillation cocktail (Packard) was added to each well, and the retained cpm were determined by scintillation counting. […] Retained cpm were plotted vs. inhibitor concentration and fit to equation 1 using non-linear regression (ref. 1) to obtain the IC50 values: Retained cpm=A[sqrt{(IC50+It−Et)^2+4*IC50*Et}−([…])]
Ref. Morrison, J. F. and S. R. Stone. […] Approaches to the study and analysis of the inhibition of enzymes by slow- and tight-binding inhibitors. Comments Mol. Cell. Biophys.
(§1) The sequence of the template RNA used was: 5′-[…]-3′

[2] = target: T2, HCV polymerase 1B (Δ21 NS5B) (Hepatitis C virus genotype 1b, UniProt P26663); assay: biochemical
T2 construct: 20 to 50nM Δ21 NS5B
T2 sequence (P26663 2420-2989, stated change not applied): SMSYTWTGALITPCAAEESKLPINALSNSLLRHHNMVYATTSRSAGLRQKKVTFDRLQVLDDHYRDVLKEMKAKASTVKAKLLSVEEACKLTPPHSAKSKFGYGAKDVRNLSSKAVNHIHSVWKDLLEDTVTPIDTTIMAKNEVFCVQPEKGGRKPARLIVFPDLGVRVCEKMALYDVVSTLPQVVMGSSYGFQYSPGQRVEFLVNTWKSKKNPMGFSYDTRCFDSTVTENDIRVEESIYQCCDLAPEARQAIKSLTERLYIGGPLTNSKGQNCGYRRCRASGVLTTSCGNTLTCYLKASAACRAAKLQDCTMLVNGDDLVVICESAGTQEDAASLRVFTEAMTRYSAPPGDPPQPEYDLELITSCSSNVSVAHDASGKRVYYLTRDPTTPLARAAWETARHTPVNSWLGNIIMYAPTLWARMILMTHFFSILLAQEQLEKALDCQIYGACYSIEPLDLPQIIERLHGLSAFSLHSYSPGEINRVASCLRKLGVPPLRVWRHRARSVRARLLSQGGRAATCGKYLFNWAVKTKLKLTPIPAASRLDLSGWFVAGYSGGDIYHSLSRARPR
Protocol: Either two-fold serial dilutions (fractional inhibition assay) or a narrower range of dilutions spanning the IC50 of the inhibitor (tight binding assay) of the inhibitors were incubated with 20mM Tris-Cl pH 7.4, 2 mM MnCl2, 1 mM dithiothreitol, 1 mM ethylene diamine tetraacetic acid (EDTA), 60 to 125μM GTP and 20 to 50nM Δ21 NS5B (HCV Strain 1B (BK, Genbank accession number M58335, or H77, Genbank accession number AF011751)) for 15min at room temperature. The reaction was initiated by the addition of 20μM CTP, 20μM ATP, 1μM ^3H-UTP (10mCi/umol), 5nM template RNA and 0.1 U/μl RNase inhibitor (RNasin, Promega), and allowed to proceed for 2 to 4h at room temperature. Reaction volume was 50μl. The reaction was terminated by the addition of 1 volume of 4mM spermine in 10mM Tris-Cl pH 8.0, 1mM EDTA. After incubation for at least 15 min at room temperature, the precipitated RNA was captured by filtering through a GF/B filter (Millipore) in a 96 well format. The filter plate was washed three times with 200μl each of 2mM spermine, 10mM Tris-Cl pH 8.0, lmM EDTA, and 2 times with ethanol. After air-drying, 30μl of Microscint 20 scintillation cocktail (Packard) was added to each well, and the retained cpm were determined by scintillation counting. […] Retained cpm were plotted vs. inhibitor concentration and fit to equation 1 using non-linear regression (ref. 1) to obtain the IC50 values: Retained cpm=A[sqrt{(IC50+It−Et)^2+4*IC50*Et}−([…])]
Ref. Morrison, J. F. and S. R. Stone. 1985. Approaches to the study and analysis of the inhibition of enzymes by slow- and tight-binding inhibitors. Comments Mol. Cell. Biophys. 2: 347-368.
as §1

[3] = system: genotype 1a-H77 subgenomic replicon cell line; assay: microbe, parasite or virus in culture; type: cell-based, HCV; details: Hepatitis C virus, 72 h, read-out: EC50 1a
[4] = system: genotype 1b-Con1 subgenomic replicon cell line; assay: microbe, parasite or virus in culture; type: cell-based, HCV; details: Hepatitis C virus, 72 h, read-out: EC50 1b

T1 sequence (P27958 2421-2990, stated change not applied): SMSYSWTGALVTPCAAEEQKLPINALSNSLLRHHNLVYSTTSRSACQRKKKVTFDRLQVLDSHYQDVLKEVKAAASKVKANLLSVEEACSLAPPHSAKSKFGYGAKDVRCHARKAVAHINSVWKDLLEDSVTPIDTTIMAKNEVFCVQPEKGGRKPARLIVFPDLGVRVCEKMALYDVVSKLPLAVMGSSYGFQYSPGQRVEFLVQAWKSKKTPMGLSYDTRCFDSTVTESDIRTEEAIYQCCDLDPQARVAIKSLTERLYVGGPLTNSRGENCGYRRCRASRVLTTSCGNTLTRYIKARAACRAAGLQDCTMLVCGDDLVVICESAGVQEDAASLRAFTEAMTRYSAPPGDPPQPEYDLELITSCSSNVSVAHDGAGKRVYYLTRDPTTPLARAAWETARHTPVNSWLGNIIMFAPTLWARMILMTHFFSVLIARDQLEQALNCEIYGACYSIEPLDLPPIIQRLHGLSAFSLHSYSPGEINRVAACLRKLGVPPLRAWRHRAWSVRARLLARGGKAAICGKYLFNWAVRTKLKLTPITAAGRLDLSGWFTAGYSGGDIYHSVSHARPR

Compound	IC50 [1] [nM]	IC50 [2] [nM]	EC50 [3] [nM]	EC50 [4] [nM]	IC50 ([1]; HCV polymerase 1a, read-out: IC50 1a) [nM]	IC50 ([2]; HCV polymerase 1b, read-out: IC50 1b) [nM]
COc1c(-c2cccc(Cl)c2)cc(-n2ccc(=O)[nH]c2=O)cc1-c1ccc2cc(NS(C)(=O)=O)ccc2c1 [IB-L0-2.74, N-(6-(3′-chloro-5-(2,4-dioxo-3,4-dihydropyrimidin-1(2H)-yl)-2-methoxybiphenyl-3-yl)naphthalen-2-yl)methanesulfonamide]	100 to 1000	100 to 1000	> 1000	100 to 1000	–	–
COc1c(Br)cc(-n2ccc(=O)[nH]c2=O)cc1-c1ccc2cc(NS(C)(=O)=O)ccc2c1 [IB-L0-2.69, N-(6-(3-bromo-5-(2,4-dioxo-3,4-dihydropyrimidin-1(2H)-yl)-2-methoxyphenyl)naphthalen-2-yl)methanesulfonamide]	10 to 100	10 to 100	100 to 1000	10 to 100	–	–
COc1c(-c2nc3cc(NS(C)(=O)=O)ccc3[nH]2)cc(N2CCC(=O)NC2=O)cc1C(C)(C)C [IA-L0-2.1, N-(2-(3-tert-butyl-5-(2,4-dioxotetrahydropyrimidin-1(2H)-yl)-2-methoxyphenyl)-1H-benzo[d]imidazol-5-yl)methanesulfonamide]	100 to 1000	100 to 1000	> 1000	> 1000	–	–
COc1c(-c2ccc3nc(NS(C)(=O)=O)cnc3c2)cc(-n2ccc(=O)[nH]c2=O)cc1C(C)(C)C [IB-L0-2.26, N-(6-(3-tert-butyl-5-(2,4-dioxo-3,4-dihydropyrimidin-1(2H)-yl)-2-methoxyphenyl)quinoxalin-2-yl)methanesulfonamide]	10 to 100	10 to 100	> 1000	100 to 1000	–	–
COc1c(-c2ccc3cc(NS(C)(=O)=O)ccc3c2)cc(N2CCC(=O)NC2=O)cc1C(C)(C)C [IA-L0-2.9, N-(6-(3-tert-butyl-5-(2,4-dioxotetrahydropyrimidin-1(2H)-yl)-2-methoxyphenyl)naphthalen-2-yl)methanesulfonamide]	< 10	< 10	< 10	< 10	–	–
COc1c(-c2nc3cc(NS(C)(=O)=O)ccc3s2)cc(N2CCC(=O)NC2=O)cc1C(C)(C)C [IA-L0-2.4, N-(2-(3-tert-butyl-5-(2,4-dioxotetrahydropyrimidin-1(2H)-yl)-2-methoxyphenyl)benzo[d]thiazol-5-yl)methanesulfonamide]	10 to 100	10 to 100	> 1000	100 to 1000	–	–
COc1c(-c2ccc3cc(NS(C)(=O)=O)ccc3c2)cc(-n2ccc(=O)[nH]c2=O)cc1-c1cccs1 [IB-L0-2.61, N-(6-(5-(2,4-dioxo-3,4-dihydropyrimidin-1(2H)-yl)-2-methoxy-3-(thiophen-2-yl)phenyl)naphthalen-2-yl)methanesulfonamide]	< 10	10 to 100	100 to 1000	10 to 100	–	–
COc1c(-c2ccc3c(c2)CC[C@]3(F)CNS(C)(=O)=O)cc(-n2ccc(=O)[nH]c2=O)cc1C(C)(C)C [IB-L0-2.10, (R)-N-((5-(3-tert-butyl-5-(2,4-dioxo-3,4-dihydropyrimidin-1 (2H)-yl)-2-methoxyphenyl)-1-fluoro-2,3-dihydro-1H-inden-1-yl)methyl)methanesulfonamide]	< 10	10 to 100	< 10	< 10	–	–
COc1c(N2CCc3cc(NS(C)(=O)=O)ccc3C2)cc(-n2ccc(=O)[nH]c2=O)cc1C(C)(C)C [IB-L0-2.19, N-(2-(3-tert-butyl-5-(2,4-dioxo-3,4-dihydropyrimidin-1(2H)-yl)-2-methoxyphenyl)-1,2,3,4-tetrahydroisoquinolin-6-yl)methanesulfonamide]	< 10	10 to 100	10 to 100	10 to 100	–	–
COc1c(-c2ccc3cc(NS(C)(=O)=O)ccc3n2)cc(-n2ccc(=O)[nH]c2=O)cc1C(C)(C)C [IB-L0-2.48, N-(2-(3-tert-butyl-5-(2,4-dioxo-3,4-dihydropyrimidin-1(2H)-yl)-2-methoxyphenyl)quinolin-6-yl)methanesulfonamide]	> 1000	> 1000	–	–	–	–
COc1ccc2cc(-c3cc(-n4ccc(=O)[nH]c4=O)cc(C(C)(C)C)c3OC)ccc2c1 [IB-L0-2.2, 1-(3-tert-butyl-4-methoxy-5-(6-methoxynaphthalen-2-yl)phenyl)pyrimidine-2,4(1H,3H)-dione]	100 to 1000	100 to 1000	> 1000	> 1000	–	–
COc1c(-c2nc3ccc(NS(C)(=O)=O)cc3s2)cc(N2CCC(=O)NC2=O)cc1C(C)(C)C [IA-L0-2.2, N-(2-(3-tert-butyl-5-(2,4-dioxotetrahydropyrimidin-1(2H)-yl)-2-methoxyphenyl)benzo[d]thiazol-6-yl)methanesulfonamide]	10 to 100	10 to 100	100 to 1000	10 to 100	–	–
COc1c(-c2ccc3c(c2)CCN3S(C)(=O)=O)cc(-n2ccc(=O)[nH]c2=O)cc1C(C)(C)C [IB-L0-2.32, 1-(3-tert-butyl-4-methoxy-5-(1-(methylsulfonyl)indolin-5-yl)phenyl)pyrimidine-2,4(1H,3H)-dione]	10 to 100	10 to 100	100 to 1000	10 to 100	–	–
COc1c(-c2ccc3c(c2)CC/C3=N\NS(C)(=O)=O)cc(-n2ccc(=O)[nH]c2=O)cc1C(C)(C)C [IB-L0-2.4, (E)-N′-(5-(3-tert-butyl-5-(2,4-dioxo-3,4-dihydropyrimidin-1(2H)-yl)-2-methoxyphenyl)-2,3-dihydro-1H-inden-1-ylidene)methanesulfonohydrazide]	< 10	< 10	–	< 10	–	–
COc1c(-c2ccc3nc(NS(C)(=O)=O)ccc3c2)cc(-n2ccc(=O)[nH]c2=O)cc1C(C)(C)C [IB-L0-2.5, N-(6-(3-tert-butyl-5-(2,4-dioxo-3,4-dihydropyrimidin-1(2H)-yl)-2-methoxyphenyl)quinolin-2-yl)methanesulfonamide]	10 to 100	10 to 100	10 to 100	< 10	–	–
CC(C)(C)c1cc(-c2ccc3cc(NS(C)(=O)=O)ccc3c2)cc(-n2ccc(=O)[nH]c2=O)c1 [IB-L0-2.8, N-(6-(3-tert-butyl-5-(2,4-dioxo-3,4-dihydropyrimidin-1(2H)-yl)phenyl)naphthalen-2-yl)methanesulfonamide]	10 to 100	10 to 100	–	10 to 100	–	–
COc1c(-c2ccc3nc(NC(C)=O)sc3c2)cc(-n2ccc(=O)[nH]c2=O)cc1C(C)(C)C [IB-L0-2.49, N-(6-(3-tert-butyl-5-(2,4-dioxo-3,4-dihydropyrimidin-1(2H)-yl)-2-methoxyphenyl)benzo[d]thiazol-2-yl)acetamide]	> 1000	> 1000	–	–	–	–
COc1c(-c2ccc3c(c2)CC=C3CN(C)S(C)(=O)=O)cc(-n2ccc(=O)[nH]c2=O)cc1C(C)(C)C [IB-L0-2.16]	< 10	10 to 100	–	–	–	–
COc1c(-c2ccc3nc(-n4c(C)ccc4C)sc3c2)cc(-n2ccc(=O)[nH]c2=O)cc1C(C)(C)C [IB-L0-2.47, 1-(3-tert-butyl-5-(2-(2,5-dimethyl-1H-pyrrol-1-yl)benzo[d]thiazol-6-yl)-4-methoxyphenyl)pyrimidine-2,4(1H,3H)-dione]	> 1000	> 1000	–	–	–	–
CCCNc1nc2ccc(-c3cc(-n4ccc(=O)[nH]c4=O)cc(C(C)(C)C)c3OC)cc2s1 [IB-L0-2.46, 1-(3-tert-butyl-4-methoxy-5-(2-(propylamino)benzo[d]thiazol-6-yl)phenyl)pyrimidine-2,4(1H,3H)-dione]	100 to 1000	100 to 1000	–	–	–	–
N,N′-(6,6′-(5-(2,4-dioxo-3,4-dihydropyrimidin-1(2H)-yl)-2-methoxy-1,3-phenylene) bis(naphthalene-6,2-diyl))dimethanesulfonamide [IB-L0-2.76]	–	–	–	–	100 to 1000	> 1000
